Assay results: patent US8637252B2, “Methods and compositions for determining altered susceptibility of HIV-1 to anti-HIV drugs” (Monogram Biosciences, Inc., priority 2011, dated 2014)
Values joined by “and” are separate entries in the source; they are usually repeats but may differ in a detail not shown here. Identical values can stand only once.

Tested on: HIV-1 (patient-derived RHIN segment)
Experiment: phenotypic drug resistance test, resistance test vectors with patient-derived RHIN segment, luciferase, 293 cells
Format: cell-based
Excerpt: Patient-derived segment(s) corresponding to the entire pol gene, encoding HIV protease, reverse transcriptase (including RNAse H), and integrase (hereinafter “POL”), the portion of pol encoding amino acids 1-305 of reverse transcriptase (hereinafter “PR-RT”), the portion of pol encoding amino acids 319-440 of reverse transcriptase (including RNAse H), and integrase (hereinafter “RHIN”), were amplified by the reverse transcription-polymerase chain reaction method (RT-PCR) using viral RNA isolated from viral particles present in the plasma or serum of HIV-infected individuals as described below. The portion of pol encoding protease, amino acids 1-531 of reverse transcriptase (including RNase H) (hereinafter “PRRT-RH”), or the portion of pol encoding protease, reverse transcriptase (including RNAse H) and integrase (hereinafter “PRRT-RHIN”), were assembled from amplicons described above by standard recombinant DNA techniques involving a KpnI restriction site at amino acid 400 or a Pin A1 site at amino acid 315.
Virus was pelleted by centrifugation at 20,400×g for 60 min from plasma (typically, 1 ml) prepared from blood samples collected in evacuated tubes containing either EDTA, acid-citrate dextrose, or heparin as an anticoagulant. Virus particles were disrupted by resuspending the pellets in 200 [1.1 of lysis buffer (4 M guanidine thiocyanate, 0.1 M Tris HCl (pH 8.0), 0.5% sodium lauryl sarcosine, 1% dithiothreitol). RNA was extracted from viral lysates by using oligo(dT) linked to magnetic beads (Dynal, Oslo, Norway). Reverse transcription was performed with Superscript III (Invitrogen) at 50 degrees for 1 hour using primer 1.
From the resultant cDNA either POL or RHIN sequences were amplified using the Advantage High Fidelity PCR kit (BD Biosciences; Clontech). POL amplification products are made using forward Primer 3 containing an Apal site and reverse Primer 4 containing a Xho 1 site. RHIN amplification products are made using forward Primer 2 containing a P1NA1 site and reverse Primer 4 containing a Xho 1 site.
A retroviral vector designed to measure antiretroviral drug susceptibility was constructed by using an infectious molecular clone of HIV-1. The vector, referred to herein as an indicator gene viral vector (IGVV), is replication defective and contains a luciferase expression cassette inserted within a deleted region of the envelope (env) gene. The IGVV is described in U.S. Pat. No. 5,837,464 (International Publication Number WO 97/27319) which is hereby incorporated by reference in its entirety. This retroviral vector was further modified to allow insertion of either the entire pol gene (POL) or the portion of poi encoding amino acids 319-440 of reverse transcriptase, the RNase H portion of reverse transcriptase, and integrase (REIN) by engineering an Xho l restriction enzyme recognition site into vif. Prior to doing this, an Xho 1 site in nef was deleted. Resistance Test vectors (RTVs) were constructed by incorporating amplified POL or RHIN into the IGVV by using Apal and Xhol or PinAI and Xho 1 restriction sites respectively. RTVs were prepared as libraries (pools) in order to capture and preserve the pol or RHIN sequence heterogeneity of the virus in the patient. POL amplification products were digested with Apal and Xhol, purified by agarose gel electrophoresis, and ligated to ApaI- and Xhol-digested IGVV DNA. RHIN amplification products were digested with PinAI and Xho/, purified by agarose gel electrophoresis, and ligated to PinAI and Xhol-digested IGVV DNA. Ligation reactions were used to transform competent Escherichia coli (Invitrogen, Carlsbad, Calif.). An aliquot of each transformation was plated onto agar, and colony counts were used to estimate the number of patient-derived segments represented in each RTV library. RTV libraries that comprised less than 50 members are not considered representative of the patient virus. […]

[1] = Sample 47 (K103K/N, V106V/A, Y181Y/C, G190G/A)
[2] = Sample 58 (K103N, Y181Y/C, G190G/A)
[3] = Sample 62 (K103H, P225P/H, T369T/I)
[4] = Sample 90 (K103K/N, Y181C, G190A)

CC(C)Nc1cccnc1N1CCN(C(=O)c2cc3cc(NS(C)(=O)=O)ccc3[nH]2)CC1 [DLV, delavirdine]
fold change in IC50, RHIN (Sample 31 (K103N)): 1.1 fold
fold change in IC50, RHIN (Sample 33 (K103S)): 0.7 fold
fold change in IC50, RHIN (Sample 34): 0.7 fold
fold change in IC50, RHIN (Sample 35 (K103H)): 0.8 fold
fold change in IC50, RHIN (Sample 36 (K103K/W)): 0.9 fold
fold change in IC50, RHIN (Sample 38 (K103N)): 0.5 fold
fold change in IC50, RHIN (Sample 39 (T369A)): 1.2 fold
fold change in IC50, RHIN (Sample 42 (G190G/A)): 0.5 fold
fold change in IC50, RHIN (Sample 45): 1.0 fold
fold change in IC50, RHIN [1]: 0.6 fold
fold change in IC50, RHIN (Sample 50 (K103N)): 0.4 fold
fold change in IC50, RHIN (Sample 51): 0.4 fold
fold change in IC50, RHIN (Sample 52): 0.9 fold
fold change in IC50, RHIN [2]: 1.5 fold
fold change in IC50, RHIN [3]: 3.4 fold and 3.36 fold
fold change in IC50, RHIN (Sample 64 (T369T/A)): 0.3 fold
fold change in IC50, RHIN (Sample 69): 0.7 fold
fold change in IC50, RHIN (Sample 72): 1.7 fold
fold change in IC50, RHIN (Sample 80 (K103K/N, Y181Y/C)): 0.58 fold
fold change in IC50, RHIN (Sample 81 (K103N, P225H)): 0.9 fold
fold change in IC50, RHIN (Sample 84): 0.4 fold
fold change in IC50, RHIN (Sample 85): 1.4 fold
fold change in IC50, RHIN (Sample 87): 1.3 fold
fold change in IC50, RHIN (Sample 89 (L1001, K103N)): 1.5 fold
fold change in IC50, RHIN [4]: 0.6 fold
fold change in IC50, RHIN (Sample 92): 0.3 fold
fold change in IC50, RHIN (Sample 93): 0.7 fold

O=C1Nc2ccc(Cl)cc2[C@@](C#CC2CC2)(C(F)(F)F)O1 [EFV, efavirenz]
fold change in IC50, RHIN (Sample 31 (K103N)): 1.1 fold
fold change in IC50, RHIN (Sample 33 (K103S)): 0.7 fold
fold change in IC50, RHIN (Sample 34): 1.0 fold
fold change in IC50, RHIN (Sample 35 (K103H)): 0.7 fold
fold change in IC50, RHIN (Sample 36 (K103K/W)): 1.0 fold
fold change in IC50, RHIN (Sample 38 (K103N)): 0.5 fold
fold change in IC50, RHIN (Sample 39 (T369A)): 0.9 fold
fold change in IC50, RHIN (Sample 42 (G190G/A)): 0.4 fold
fold change in IC50, RHIN (Sample 45): 1.0 fold
fold change in IC50, RHIN [1]: 0.5 fold
fold change in IC50, RHIN (Sample 50 (K103N)): 0.5 fold
fold change in IC50, RHIN (Sample 51): 0.4 fold
fold change in IC50, RHIN (Sample 52): 1.0 fold
fold change in IC50, RHIN [2]: 0.9 fold
fold change in IC50, RHIN [3]: 1.8 fold and 1.83 fold
fold change in IC50, RHIN (Sample 64 (T369T/A)): 0.3 fold
fold change in IC50, RHIN (Sample 69): 0.8 fold
fold change in IC50, RHIN (Sample 72): 1.0 fold
fold change in IC50, RHIN (Sample 80 (K103K/N, Y181Y/C)): 0.52 fold
fold change in IC50, RHIN (Sample 81 (K103N, P225H)): 1.2 fold
fold change in IC50, RHIN (Sample 84): 0.5 fold
fold change in IC50, RHIN (Sample 85): 1.2 fold
fold change in IC50, RHIN (Sample 87): 1.3 fold
fold change in IC50, RHIN (Sample 89 (L1001, K103N)): 1.2 fold
fold change in IC50, RHIN [4]: 0.7 fold
fold change in IC50, RHIN (Sample 92): 0.3 fold
fold change in IC50, RHIN (Sample 93): 0.9 fold

Cc1ccnc2c1NC(=O)c1cccnc1N2C1CC1 [NVP, nevirapine]
FC (Pool of patient sample 62, RT codons mutated: N348 (0.5), T369 (0.5), T377, T403): 7.61
fold change in IC50, RHIN (Sample 31 (K103N)): 2.1 fold
fold change in IC50, RHIN (Sample 33 (K103S)): 1.0 fold
fold change in IC50, RHIN (Sample 34): 0.7 fold
fold change in IC50, RHIN (Sample 35 (K103H)): 1.2 fold
fold change in IC50, RHIN (Sample 36 (K103K/W)): 1.0 fold
fold change in IC50, RHIN (Sample 38 (K103N)): 0.5 fold
fold change in IC50, RHIN (Sample 39 (T369A)): 2.6 fold
fold change in IC50, RHIN (Sample 42 (G190G/A)): 0.6 fold
fold change in IC50, RHIN (Sample 45): 1.3 fold
fold change in IC50, RHIN [1]: 1.0 fold
fold change in IC50, RHIN (Sample 50 (K103N)): 0.6 fold
fold change in IC50, RHIN (Sample 51): 0.6 fold
fold change in IC50, RHIN (Sample 52): 0.9 fold
fold change in IC50, RHIN [2]: 1.7 fold
fold change in IC50, RHIN [3]: 7.6 fold and 7.61 fold
fold change in IC50, RHIN (Sample 64 (T369T/A)): 0.4 fold
fold change in IC50, RHIN (Sample 69): 0.9 fold
fold change in IC50, RHIN (Sample 72): 1.6 fold
fold change in IC50, RHIN (Sample 80 (K103K/N, Y181Y/C)): 0.72 fold
fold change in IC50, RHIN (Sample 81 (K103N, P225H)): 1.4 fold
fold change in IC50, RHIN (Sample 84): 0.7 fold
fold change in IC50, RHIN (Sample 85): 2.1 fold
fold change in IC50, RHIN (Sample 87): 1.9 fold
fold change in IC50, RHIN (Sample 89 (L1001, K103N)): 2.7 fold
fold change in IC50, RHIN [4]: 1.2 fold
fold change in IC50, RHIN (Sample 92): 0.5 fold
fold change in IC50, RHIN (Sample 93): 1.1 fold
FC (clone c03a of patient sample 62, RT codons mutated: T377, T403): 1.64
FC (clone c03b of patient sample 62, RT codons mutated: A355, T369, T377, T403): 5.51
FC (clone c08 of patient sample 62, RT codons mutated: H315, T369, T377): 12.98
FC (clone c10 of patient sample 62, RT codons mutated: N348, T377, T403): 28.07
FC (clone c12 of patient sample 62, RT codons mutated: T369, T377, T403): 9.18
FC (clone c14 of patient sample 62, RT codons mutated: Y342, T377, T403, R448): 6.48
FC (clone c15 of patient sample 62, RT codons mutated: N348, Y354, T403, N418): 2.37
FC (clone c16 of patient sample 62, RT codons mutated: T377, T403, D511 (0.5)): 2.19
FC (clone c18 of patient sample 62, RT codons mutated: A371, T377, T403): 2.46
FC (clone c20 of patient sample 62, RT codons mutated: T377, T403): 3.97
FC (clone c21 of patient sample 62, RT codons mutated: T377, T403, K550): 5.16
FC (clone c23 of patient sample 62, RT codons mutated: T369, T377, T403): 10.11
FC (clone c24 of patient sample 62, RT codons mutated: T377, T403): 4.77
FC (clone c26 of patient sample 62, RT codons mutated: T369, T377, T403): 12.00
FC (clone c28 of patient sample 62, RT codons mutated: T377, I393, T403, R448): 0.54
